According to patent publication US8557816B2, “Aurora kinase modulators and method of use” (Amgen Inc., priority 2007, dated 2013):

Tests used:
[1] = target: T1, AuroraA-TPX2 (Homo sapiens, UniProt O14965); assay: AuroraA-TPX2 Homogeneous Time Resolved Fluorescent (HTRF) kinase assay; type: biochemical; details: average; read-out: AurA_IC50_IP (uM Avg)
T1 construct: 20 μL of AuroraA-TPX2 KD GST for a final volume of about 41 μL; GST
T1 sequence (O14965 133-383 limits assumed): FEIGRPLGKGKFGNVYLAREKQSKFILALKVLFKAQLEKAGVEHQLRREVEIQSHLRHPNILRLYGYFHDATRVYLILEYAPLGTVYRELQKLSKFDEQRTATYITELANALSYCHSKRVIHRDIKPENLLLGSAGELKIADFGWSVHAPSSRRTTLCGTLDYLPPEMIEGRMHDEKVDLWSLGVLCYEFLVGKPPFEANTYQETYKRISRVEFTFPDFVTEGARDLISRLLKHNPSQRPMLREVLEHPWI
T1 sequence (Q9ULW0 1-43 partner limits assumed): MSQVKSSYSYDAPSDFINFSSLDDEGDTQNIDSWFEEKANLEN
Method in brief: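 HTRF read-out (Eu 615 nm to APC 655 nm) of phosphorylated biotin-PLK, detected with 0.02 nM europium anti-phosphoPLK antibody and 0.0005 mg/mL SA-APC after overnight equilibration.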

[2] = target: T2, AuroraB (Homo sapiens, UniProt Q96GD4); assay: AuroraB Homogeneous Time Resolved Fluorescent (HTRF) kinase assay; type: biochemical; details: average; read-out: AurB_IC50_IP (uM Avg)
T2 construct: 20 μL of AuroraB FL H is for a final volume of 41 μL; His
Method in brief: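 Read-out is time-resolved FRET between europium anti-phospho-H3 antibody and streptavidin-APC, added in EDTA buffer to stop the reaction and equilibrated about 60 min (ex 320, em 615 and 655 nm). Preceding reaction: ~90 min, full-length enzyme, ATP, 0.1 μM biotin-Histone H3 substrate, Mg/Mn HEPES buffer pH 7.5.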

T2 sequence (Q96GD4 whole entry): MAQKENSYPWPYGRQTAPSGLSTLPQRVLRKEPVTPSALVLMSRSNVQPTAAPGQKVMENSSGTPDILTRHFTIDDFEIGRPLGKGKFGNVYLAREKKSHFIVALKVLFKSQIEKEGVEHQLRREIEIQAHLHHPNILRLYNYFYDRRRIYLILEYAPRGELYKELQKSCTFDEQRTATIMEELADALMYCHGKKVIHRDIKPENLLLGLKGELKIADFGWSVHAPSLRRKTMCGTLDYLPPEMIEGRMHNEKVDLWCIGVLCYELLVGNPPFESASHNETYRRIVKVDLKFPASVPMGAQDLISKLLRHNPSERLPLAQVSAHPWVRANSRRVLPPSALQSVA

Structure (SMILES)	IC50 [1] [µM]	IC50 [2] [µM]
COc1cnc2c(Oc3ccc(Nc4nnc(-c5ccc(C#N)cc5)c5ccccc45)cc3)ccnc2c1 [compound 181, 4-(4-((4-((7-(methyloxy)-1,5-naphthyridin-4-yl)oxy)phenyl)amino)-1-phthalazinyl)benzonitrile]	0.171	0.007
COc1cnc2c(Oc3ccc(Nc4nnc(-c5cnc6ccccc6c5)c5ccccc45)cc3)ccnc2c1 [compound 182, N-(4-((7-(methyloxy)-1,5-naphthyridin-4-yl)oxy)phenyl)-4-(3-quinolinyl)-1-phthalazinamine]	0.023	0.002
COc1cnc2c(Oc3ccc(Nc4nnc(-c5cccc6[nH]ccc56)c5ccccc45)cc3)ccnc2c1 [compound 183, 4-(1H-indol-4-yl)-N-(4-((7-(methyloxy)-1,5-naphthyridin-4-yl)oxy)phenyl)-1-phthalazinamine]	0.033	0.003
Cc1ccsc1-c1nnc(Nc2ccc(Oc3ccnc4cc(C#N)ccc34)cc2)c2ccccc12 [compound 184, 4-((4-((4-(3-methyl-2-thienyl)-1-phthalazinyl)amino)phenyl)oxy)-7-quinolinecarbonitrile]	0.201	0.003
COc1cnc2c(Oc3ccc(Nc4nnc(-c5sccc5C)c5ccccc45)cc3)ccnc2c1 [compound 185, N-(4-((7-(methyloxy)-1,5-naphthyridin-4-yl)oxy)phenyl)-4-(3-methyl-2-thienyl)-1-phthalazinamine]	0.231	0.006
COc1cccc(-c2nnc(Nc3ccc(Oc4ccnc5ccccc45)c(F)c3)c3ccccc23)n1 [compound 186, N-(3-fluoro-4-(4-quinolinyloxy)phenyl)-4-(6-(methyloxy)-2-pyridinyl)-1-phthalazinamine]	0.059	0.002
COc1cnc2c(Oc3ccc(Nc4nnc(-c5ccc(C)cc5)c5ccccc45)cc3F)ccnc2c1 [compound 187, N-(3-fluoro-4-((7-(methyloxy)-1,5-naphthyridin-4-yl)oxy)phenyl)-4-(4-methylphenyl)-1-phthalazinamine]	0.006	0.004
COc1cnc2c(Oc3ccc(Nc4nnc(-c5cc(C)cc(C)c5)c5ccccc45)cc3)ccnc2c1 [compound 188, 4-(3,5-dimethylphenyl)-N-(4-((7-(methyloxy)-1,5-naphthyridin-4-yl)oxy)phenyl)-1-phthalazinamine]	0.017	0.006
COc1cnc2c(Oc3ccc(Nc4nnc(-c5ncc(C)s5)c5ccccc45)cc3)ccnc2c1 [compound 189, N-(4-((7-(methyloxy)-1,5-naphthyridin-4-yl)oxy)phenyl)-4-(5-methyl-1,3-thiazol-2-yl)-1-phthalazinamine]	0.022	0.009
COc1cnc2c(Oc3ccc(Nc4nnc(-c5ccc(F)nc5)c5ccccc45)cc3)ccnc2c1 [compound 190, 4-(6-fluoro-3-pyridinyl)-N-(4-((7-(methyloxy)-1,5-naphthyridin-4-yl)oxy)phenyl)-1-phthalazinamine]	0.052	0.005
COc1cnc2c(Oc3ccc(Nc4nnc(-c5cccnc5F)c5ccccc45)cc3)ccnc2c1 [compound 191, 4-(2-fluoro-3-pyridinyl)-N-(4-((7-(methyloxy)-1,5-naphthyridin-4-yl)oxy)phenyl)-1-phthalazinamine]	0.104	0.009
COc1cnc2c(Oc3ccc(Nc4nnc(-c5ccc(F)c(Cl)c5)c5ccccc45)cc3)ccnc2c1 [compound 193, 4-(3-chloro-4-fluorophenyl)-N-(4-((7-(methyloxy)-1,5-naphthyridin-4-yl)oxy)phenyl)-1-phthalazinamine]	0.023	0.005
COc1cnc2c(Oc3ccc(Nc4nnc(-c5ccc(N(C)C)cc5)c5ccccc45)cc3)ccnc2c1 [compound 194, 4-(4-(dimethylamino)phenyl)-N-(4-((7-(methyloxy)-1,5-naphthyridin-4-yl)oxy)phenyl)-1-phthalazinamine]	0.023	0.01
COc1cnc2c(Oc3ccc(Nc4nnc(-c5ccc6sc(C)nc6c5)c5ccccc45)cc3)ccnc2c1 [compound 195, 4-(2-methyl-1,3-benzothiazol-5-yl)-N-(4-((7-(methyloxy)-1,5-naphthyridin-4-yl)oxy)phenyl)-1-phthalazinamine]	0.088	0.005
CCCc1cc(-c2ccccc2)nnc1Nc1ccc(Oc2ccnc3cc(C#N)ccc23)cc1 [compound 196, 4-((4-((6-phenyl-4-propyl-3-pyridazinyl)amino)phenyl)oxy)-7-quinolinecarbonitrile]	0.672	0.006
COc1cnc2c(Oc3ccc(Nc4nnc(-c5ccc(N6CCCCC6)cc5)c5ccccc45)cc3)ccnc2c1 [compound 198, N-(4-((7-(methyloxy)-1,5-naphthyridin-4-yl)oxy)phenyl)-4-(4-(1-piperidinyl)phenyl)-1-phthalazinamine]	0.128	0.004
CCc1cc(-c2ccc(C)cc2)nnc1Nc1ccc(Oc2ccnc3cc(OC)cnc23)cc1 [compound 199, 4-ethyl-N-(4-((7-(methyloxy)-1,5-naphthyridin-4-yl)oxy)phenyl)-6-(4-methylphenyl)-3-pyridazinamine]	0.027	0.002
COc1cnc2c(Oc3ccc(Nc4nnc(-c5ncco5)c5ccccc45)cc3)ccnc2c1 [compound 200, N-(4-((7-(methyloxy)-1,5-naphthyridin-4-yl)oxy)phenyl)-4-(1,3-oxazol-2-yl)-1-phthalazinamine]	0.087	0.003
COc1cnc2c(Oc3ccc(Nc4nnc(-c5ccc(Cl)c(Cl)c5)c5ccccc45)cc3)ccnc2c1 [compound 201, 4-(3,4-dichlorophenyl)-N-(4-((7-(methyloxy)-1,5-naphthyridin-4-yl)oxy)phenyl)-1-phthalazinamine]	0.035	0.006
Cn1cncc1-c1cc2nccc(Oc3ccc(Nc4nnc(-c5ccccc5)c5ccccc45)cc3)c2s1 [compound 202, N-(4-((2-(1-methyl-1H-imidazol-5-yl)thieno[3,2-b]pyridin-7-yl)oxy)phenyl)-4-phenyl-1-phthalazinamine]	0.02	0.002
Cc1ccc(-c2nnc(Nc3ccc(Oc4ccnc5cc(-c6cncn6C)sc45)cc3)c3ccccc23)cc1 [compound 203, N-(4-((2-(1-methyl-1H-imidazol-5-yl)thieno[3,2-b]pyridin-7-yl)oxy)phenyl)-4-(4-methylphenyl)-1-phthalazinamine]	0.008	0.002
COc1cnc2c(Oc3ccc(Nc4nnc(-c5ccc6c(ccn6C)c5)c5ccccc45)cc3)ccnc2c1 [compound 204, 4-(1-methyl-1H-indol-5-yl)-N-(4-((7-(methyloxy)-1,5-naphthyridin-4-yl)oxy)phenyl)-1-phthalazinamine]	0.026	0.003
CCc1cc(-c2ccc(C)s2)nnc1Nc1ccc(Oc2ccnc3cc(OC)cnc23)cc1 [compound 205, 4-ethyl-N-(4-((7-(methyloxy)-1,5-naphthyridin-4-yl)oxy)phenyl)-6-(5-methyl-2-thienyl)-3-pyridazinamine]	0.06	0.004
COc1cnc2c(Oc3ccc(Nc4nnc(-c5ccc6cc[nH]c6c5)c5ccccc45)cc3)ccnc2c1 [compound 206, 4-(1H-indol-6-yl)-N-(4-(7-methoxy-1,5-naphthyridin-4-yloxy)phenyl)phthalazin-1-amine]	0.017	0.003
N#Cc1ccc2c(Sc3ccc(Nc4nnc(-c5ccccc5)c5ccccc45)cc3)ccnc2c1 [compound 208, 4-((4-((4-phenyl-1-phthalazinyl)amino)phenyl)thio)-7-quinolinecarbonitrile]	0.18	0.007
COc1cnc2c(Oc3ccc(Nc4nnc(-c5ccc(C)c(N)c5)c5ccccc45)cc3)ccnc2c1 [compound 209, 4-(3-amino-4-methylphenyl)-N-(4-((7-(methyloxy)-1,5-naphthyridin-4-yl)oxy)phenyl)-1-phthalazinamine]	0.012	0.001
CCc1cc(-c2cc(C)cs2)nnc1Nc1ccc(Oc2ccnc3cc(OC)cnc23)cc1 [compound 210, 4-ethyl-N-(4-((7-(methyloxy)-1,5-naphthyridin-4-yl)oxy)phenyl)-6-(4-methyl-2-thienyl)-3-pyridazinamine]	0.031	0.002
COc1cc2nccc(Oc3ccc(Nc4nnc(-c5ccc(C)cc5)c5ccccc45)cc3)c2cc1C(N)=O [compound 211, 7-(methyloxy)-4-((4-((4-(4-methylphenyl)-1-phthalazinyl)amino)phenyl)oxy)-6-quinolinecarboxamide]	0.006	0.001
COc1cnc2c(Oc3ccc(Nc4nnc(-c5cn[nH]c5)c5ccccc45)cc3)ccnc2c1 [compound 212, N-(4-((7-(methyloxy)-1,5-naphthyridin-4-yl)oxy)phenyl)-4-(1H-pyrazol-4-yl)-1-phthalazinamine]	0.478	0.018
